Measured values published in patent US8067456B2 (AEterna Zentaris GmbH, priority 2004, dated 2011).
≈ marks a conversion by molar mass, not a printed value. Read-outs that look alike come from different tables or passages of the source. Blank lines part the entries; values can stand above or below the molecule they belong to.

How the values were obtained:
rat LHRH receptor = target: T1, rat LHRH receptor (Rattus norvegicus, UniProt P30969); assay: LHRH receptor-ligand binding assay (transfected LTK cells); details: LTK cells transfected with rat LHRH receptor, 125I-triptorelin tracer, 37° C., 60 min; read-out: Binding to r-LHRHR EC50
T1 construct: expressed in transfected cells; host or cells: LTK cells (mouse fibroblasts, ATCC CCL-1.3)
T1 sequence (P30969 1-327): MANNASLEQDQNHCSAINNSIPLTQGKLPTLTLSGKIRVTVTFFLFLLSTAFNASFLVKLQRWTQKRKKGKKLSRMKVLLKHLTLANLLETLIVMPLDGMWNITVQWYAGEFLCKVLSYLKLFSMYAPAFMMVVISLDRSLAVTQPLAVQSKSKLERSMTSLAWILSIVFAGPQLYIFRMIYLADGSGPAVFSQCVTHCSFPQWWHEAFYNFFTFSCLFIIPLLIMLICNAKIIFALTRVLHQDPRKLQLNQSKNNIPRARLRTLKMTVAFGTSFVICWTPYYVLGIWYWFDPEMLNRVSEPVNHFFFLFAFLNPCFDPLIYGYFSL
Protocol: ^125I-Triptorelin [^125I-(D)-Trp6-GnRH] was purchased from Biotrend (Cologne, Germany).
The specific activity was in each case 2.13 Ci/mmol.
LTK cells (mouse fibroblasts: ATCC No. CCL-1.3) which have been transfected with the rat LHRH receptor are cultivated in DMEM medium (Invitrogen Life Technologies, Germany) with penicillin (100 I.U./ml), streptomycin (0.1 mg/ml) and glutamine (0.01 mol/l) and 10% fetal calf serum (FCS; Invitrogen Life Technologies, Germany) on plastic tissue culture plates (Nunc, Germany, 245×245-20 mm).
80% confluent cell culture plates are washed twice with 50 ml of phosphate-buffered saline (PBS) and then detached with 0.01 M EDTA solution. The cells are pelleted by centrifugation at 200·g for 5 min in a laboratory centrifuge (Kendro, Germany). The cell pellet is resuspended in 3 ml of binding medium (DMEM; 10 mM Hepes; 0.5% BSA; 0.1% […]; 1 g/l bacitracin (add fresh, stock 100×); 0.1 g/l SBTI (add fresh, stock 1000×) and the cell count is determined by Trypan blue staining in a Neubauer counting chamber. The cell suspension is adjusted with binding medium to a concentration of 5×10^5 cells/0.05 ml.
Binding studies for competition plots are carried out as duplicates. The test substances are employed as 10 mM DMSO solutions. They are diluted to 4 times the final concentration employed with binding medium. 25 μl of the substance dilution are mixed with 25 μl of tracer solution (^125I-triptorelin or ^125I-cetrorelix). The tracer concentration is adjusted to approx. 50 000 cpm (measured in a Cobra II, γ counter. PE Liefe Science, Germany) in the final reaction volume of 100 μl.
200 μl of silicone/liquid paraffin mixture (84%:16%) are introduced into 650 μl conical tubes (Roth. Germany). 50 μl of the cell suspension are pipetted thereon, followed by 50 μl of the test substance/tracer mixture. The tubes are capped and incubated with vertical rotation in an incubator at 37° C. for 60 min. After incubation, the samples are centrifuged in a centrifuge (Kendro, Germany) at 900 rpm and subsequently shock-frozen in liquid N2. The tip with the cell pellet is cut off and transferred into prepared counting vials (Roth, Germany). The remainder of the conical tube with the remaining supernatant is likewise transferred into a counting vial. The measurement takes place in a γ counter for 1 min/sample.
Evaluation of the samples takes place after calculation of the specific binding compared with untreated cells, after subtraction of the nonspecific binding (excess of unlabeled ligand, 1 μM) by means of GraphPad Prism or alternatively by means of OMMM software.

[1] = test system: LHRH-stimulated LH secretion from rat pituitary cells; assay: Inhibition of LHRH-induced LH secretion from rat pituitary cells in vitro; type: cell-based
Protocol: The LH concentration in cell culture supernatants was measured using the rat luteinizing hormone (rLH) enzyme immunoassay (EIA) system ELISA (RPN 2562) from Amersham Pharmacia Biotech. All other chemicals used were from commercial sources in the highest purity available.
Juvenile male Wistar rats (Harlan Winkelmann, Germany) were sacrificed by decapitation, and the pituitaries were removed and taken up in Hanks' buffer (HBSS) with 0.3% BSA and 10 mM HEPES (pH 7.4). Pituitaries from 20 rats were required to carry out one experiment. The cells of the anterior lobe of the pituitary were separated from the remaining tissue by incubation in Hanks' buffer with 10 mM HEPES (pH 7.4), 0.3% BSA, 1 mg/ml hyaluronidase (type VIII), 1 mg/ml soybean trypsin inhibitor, 10 μg/ml DNAsel and 1 mg/ml papain at 37° C. for 30 minutes A sterile Pasteur pipette was used to disperse the cells, and they were subsequently pelleted by centrifugation. The cells were seeded in a density of 2.5×10^5 cells/well of a collagen-coated 48-well plate (Becton Dickinson) in DMEM medium (Invitrogen Life Technologies, Germany) with 10% fetal calf serum (FCS; Invitrogen Life Technologies, Germany), 10 mill nonessential amino acids and 10 mill Pen/Strep (penicillin/streptomycin).
The medium was changed after incubation at 37° C., 5% CO2 and 95% humidity for 48 h. The medium was replaced by LHRH-containing (10 nM) medium or medium with LHRH (10 nM) and test substance in the concentration indicated (table). After a further incubation for 3 hours, the cell supernatant was harvested and frozen at −20° C. The LH content was determined by means of ELISA in triplicate determination in accordance with the manufacturer's (Amersham Pharmacia Biotech) instructions.
In the following table, “% Inhibition” describes the quotient of LHRH-stimulated LH secretion with (“LH (ng/ml)” and without the addition of the test substance. The values originate from different, independent experiments.

[2] = Saturation solubility in water; type: physicochemical; details: maximum of 1% DMSO added, HPLC UV; for solubility: water, thermodynamic from solid
Protocol: The saturation solubility in water was determined in accordance with the following description: to initiate dissolving of the substances and to improve the wetting of the samples, a maximum of 1% DMSO was added. The content was checked by using an HPLC UV method.

LHRH receptor = target: T2, LHRH receptor (Rattus norvegicus, UniProt P30969); assay: LHRH receptor-ligand binding assay (membrane preparations from rat pituitary cells); details: competition with 0.05 nM [125I][D-Trp6]-LHRH, 90 min, 4° C., rat pituitary membranes
T2 construct: rat pituitary cells which naturally strongly express the LHRH receptor; from tissue; host or cells: rat pituitary cells (membrane preparation)
T2 sequence (P30969 1-327): T1 sequence (P30969 1-327)
Protocol: Heterologous competition experiments were carried out using membrane preparations from rat pituitary cells which naturally strongly express the LHRH receptor. The ligand used in this case was [^125I][D-Trp^6]-LHRH in a concentration of 0.05 nM. Unlabeled [D-Trp^6]-LHRH was used in a concentration of 1 μM, or the test substance was used in the desired concentration, for competition. After an incubation time of 90 minutes at 4° C., the bound ligand was measured by scintillation (Halmos et al., Proc. Natl. Acad. Sci. USA, 1996, 93, 2398).
The result obtained was the percentage proportion of bound ligand in the presence of the competitor related to the specifically bound proportion of the control (see result for selected compounds in Table 3). EC50 values were calculated by nonlinear regression analysis of the competition plots.

[3] = Metabolic stability in human liver microsomes; type: in vitro ADME; details: 1 μM, 37° C., NADPH
Protocol: (§1) The metabolic stability in relation to liver microsomes (species human, rat) was determined in accordance with the following description: the substances were incubated at a test concentration of 1 […] An HPLC MS/MS method was subsequently used to quantify the unmetabolized amount of starting compound relative to 100%.

[4] = Metabolic stability in rat liver microsomes; type: in vitro ADME; details: 1 μM, 37° C., NADPH
Protocol: as §1

[5] = test substance 3.3 × 10^−8 M, LHRH 10 nM, 3 hours

EC50 (rat LHRH receptor): 7.5 nM
Molecule: CCC(C)[C@H](NC(=O)[C@@]1(NC(=O)[C@H](CCc2ccc(O)cc2)NC(=O)OCc2ccccc2)CCc2[nH]c3c(Cl)cc(Cl)cc3c2C1)C(N)=S (stereo partly drawn) [Compound 10, benzyl[(S)-1-[(R)-6,8-dichloro-3-((S)-2-methyl-1-thiocarbamoylbutylcarbamoyl)-2,3,4,9-tetrahydro-1H-carbazol-3-ylcarbamoyl]-3-(4-hydroxyphenyl)propyl]carbamate]
inhibition at 0.033 µM ([1]; Rattus norvegicus, test substance 3.3 × 10^−8 M, LHRH 10 nM, 3 hours, read-out: % Inhibition): 39%
inhibition at 0.0033 µM ([1]; Rattus norvegicus, test substance 3.3 × 10^−9 M, LHRH 10 nM, 3 hours): 0%
LH (ng/ml) ± SD [1, 5]: 118.7 ± 11.6 ng/mL
LH (ng/ml) ± SD ([1]; test substance 3.3 × 10^−9 M, LHRH 10 nM, 3 hours): 198.8 ± 4.2 ng/mL

Molecule: CCC(C)[C@H](NC(=O)[C@@]1(NC(=O)[C@@H](NC(=O)Cc2ccccc2F)C(C)CC)CCc2[nH]c3c(Cl)cc(Cl)cc3c2C1)C(N)=O (stereo partly drawn) [Compound 4, (R)-6,8-dichloro-3-{(S)-2-[2-(2-fluorophenyl)acetylamino]-3-methylpentanoylamino}-2,3,4,9-tetrahydro-1H-carbazole-3-carboxylic acid ((S)-1-carbamoyl-2-methylbutyl)amide]
EC50 (rat LHRH receptor): 4.8 nM
inhibition at 0.033 µM ([1]; Rattus norvegicus, 3 h): 67%
LH (ng/ml) ± SD [1, 5]: 79.3 ± 5.7 ng/mL

Molecule: CC[C@H](C)[C@H](NC(=O)[C@@]1(NC(=O)[C@H](Cc2ccc(OP(=O)(O)O)cc2)NC(=O)OCc2ccccc2)CCc2[nH]c3c(Cl)cc(Cl)cc3c2C1)C(N)=O [Compound 9]
solubility [2]: 151 µg/mL (≈ 191 µM)

EC50 (LHRH receptor): 0.59 nM
Molecule: CCC(C)[C@H](NC(=O)[C@@]1(NC(=O)[C@@H](NC(=O)Cc2ccccc2F)C(C)CC)CCc2[nH]c3c(C(F)(F)F)cccc3c2C1)C(N)=O (stereo partly drawn) [Compound 75, (R)-3-{(S)-2-[2-(2-fluorophenyl)acetylamino]-3-methylpentanoylamino}-8-trifluoromethyl-2,3,4,9-tetrahydro-1H-carbazole-3-carboxylic acid ((S)-1-carbamoyl-2-methylbutyl)amide]

Molecule: benzyl[(S)-1-[(R)-3-((S)-carbamoyl-2-methylbutylcarbamoyl)-6,8-dichloro-2,3,4,9-tetrahydro-1H-carbazol-3-ylcarbamoyl]-3-(4-phosphonooxyphenyl)propyl]-carbamate [Compound 11]
EC50 (rat LHRH receptor): 17.2 nM
Saturation solubility in water [2]: 39.9 µg/mL
Metabolic stability (human) [1 h, % recovery] [3]: 77%

EC50 (LHRH receptor): 6.9 nM
Molecule: CCC(C)[C@H](NCCc1ccc(F)cc1)C(=O)N[C@]1(C(=O)N[C@H](C(N)=S)C(C)CC)CCc2[nH]c3c(Cl)cc(F)cc3c2C1 (stereo partly drawn) [Compound 67, (R)-8-chloro-6-fluoro-3-{(S)-2-[2-(4-fluorophenyl)ethylamino]-3-methylpentanoylamino}-2,3,4,9-tetrahydro-1H-carbazole-3-carboxylic acid ((S)-2-methyl-1-thiocarbamoylbutyl)amide]

solubility [2]: 0.35 µg/mL (≈ 0.484 µM)
Molecule: CCC(C)C(NC(=O)C1(NC(=O)C(CCc2ccc(O)cc2)NC(=O)OCc2ccccc2)CCc2[nH]c3c(Cl)cc(Cl)cc3c2C1)C(N)=O (centres unmarked) [Example 303 from WO 03/051837 A2, Benzyl [1-[3-(1-carbamoyl-2-methylbutylcarbamoyl)-6,8-dichloro-2,3,4,9-tetrahydro-1H-carbazol-3-ylcarbamoyl]-3-(4-hydroxyphenyl)propyl]carbamate, reference compound]

EC50 (LHRH receptor): 8 nM
Molecule: CCC(C)[C@H](NC(=O)[C@@]1(NC(=O)[C@@H](NC(=O)OCc2ccc(F)cc2)C(C)CC)CCc2[nH]c3c(Cl)cc(Cl)cc3c2C1)C(N)=O (stereo partly drawn) [Compound 48, 4-fluorobenzyl {(S)-1-[(R)-3-((S)-1-carbamoyl-2-methylbutylcarbamoyl)-6,8-dichloro-2,3,4,9-tetrahydro-1H-carbazol-3-ylcarbamoyl]-2-methylbutyl}carbamate]

Saturation solubility in water [2]: 0.38 µg/mL
Molecule: CCC(C)C(NC(=O)OCc1ccccc1)C(=O)NC1(C(=O)NC(C(N)=O)C2CCCCC2)CCc2[nH]c3c(Cl)cc(Cl)cc3c2C1 (centres unmarked) [Example 300 from WO 03/051837 A2, reference compound]

EC50 (LHRH receptor): 0.72 nM
Molecule: CCC(C)[C@H](NC(=O)Cc1ccc(F)cc1F)C(=O)N[C@]1(C(=O)N[C@H](C(N)=S)C(C)CC)CCc2[nH]c3c(Cl)cc(F)cc3c2C1 (stereo partly drawn) [Compound 66, (R)-8-chloro-3-{(S)-2-[2-(2,4-difluorophenyl)acetylamino]-3-methylpentanoylamino}-6-fluoro-2,3,4,9-tetrahydro-1H-carbazole-3-carboxylic acid ((S)-2-methyl-1-thiocarbamoylbutyl)amide]

recovery at 1 μM [4]: 5%
recovery at 1 μM [3]: 0%
Molecule: CCC(C)[C@H](NC(=O)[C@@]1(NC(=O)[C@@H](NC(=O)OCc2ccccc2)C(C)CC)CCc2[nH]c3c(OC)cccc3c2C1)C(N)=O (stereo partly drawn) [Example 294 from WO 03/051837 A2, Benzyl {(S)-1-[(R)-3-((S)-1-carbamoyl-2-methylbutylcarbamoyl)-8-methoxy-2,3,4,9-tetrahydro-1H-carbazol-3-ylcarbamoyl]-2-methylbutyl]carbamate, reference compound]
